Test results reported in patent US11572347B2 (priority 2017, dated 2023).
Like-named read-outs stand apart in the source and are kept apart here.

What was measured:
in vivo = settings: rat
Description: All the animal experiments were performed according to the protocols approved by the Animal Use and Care Committee of University of California-Davis. Male Sprague-Dawley rats (n=4, 8 week old, 250-300 g) were used in the pharmacokinetic study of sEH/PDE4 dual inhibitors. […] Inhibitor was dissolved in 100% polyethylene glycol 300 to form a clear solution. […] Each blood sample was immediately transferred to a tube containing […] of water and mixed by Vortex for 1 min, all samples were stored at −80° C. until analysis.

[1] = test system: inflammatory pain (rat TWL-LPS model); settings: for TWL threshold time course (analgesic effect): over 4 h
Description: Control animals received a 50 μl saline intraplantar sham injection in the right back paw.
Student t-test was performed in Microsoft Excel with a significance of P<0.05. Results are shown as mean±SD.

[2] = over the following days post treatment
PDE4 = test system: PDE4
Description: HEK293 cell culture and transfection: HEK293 cells were cultured in DMEM (Gibco life technologies) containing 10% FBS, 100 units/ml penicillin-streptomycin, and 2 mM L-glutamine. Cell transfections were performed with the PIE Transfection reagent (Qiagen) according to manufacturer's instructions.
Forster Resonance Energy Transfer (FRET):Measurements to track PKA activity. […] Images were acquired using a Zeiss AXIO inverted fluorescence microscope (Carl Zeiss micrscopy, LLC, Thomwood, N.Y.) with a 40× oil-emersion objective lens and a charge-coupled device camera controlled by Metafluor software (Molecular Devices, Sunnyvale, Calif.). […] Images were subjected to background subtraction, and were acquired every 30 seconds with exposure time of 200 ms. The donor/acceptor FRET ratio was calculated and normalized to the ratio value of baseline.
Statistics: Statistical analysis was performed using GraphPad Prism 6 software (La Jolla, Calif.). Results are shown as mean±SEM and were analyzed by one way ANOVA with post hoc Bonferroni's multiple compression test.

[3] = male, Sprague-Dawley, in vivo, 0.3 mg/kg
[4] = male, Sprague-Dawley, po, 3 mg/kg
[5] = male, Sprague-Dawley, po, 30 mg/kg
[6] = male, Sprague-Dawley, po, 100 mg/kg
[7] = rat TWL-LPS model, 1 mg/kg oral, 0.5 h
[8] = rat TWL-LPS model, 3 mg/kg oral, 0.5 h

Compound: CCC(=O)N1CCC(C(=O)NCc2ccc(OC)cc2C(F)(F)F)CC1 [Compound 23/RBH61, N-(4-methoxy-2-(trifluoromethyl)benzyl)-1-propionylpiperidine-4-carboxamide]
- concentration at 0 h (in vivo; [3]): 0 nM
- concentration at 1 h (in vivo; [3]): 40 ± 12 nM
- concentration at 2 h (in vivo; [3]): 25 ± 6 nM
- concentration at 8 h (in vivo; [3]): 0 nM
- concentration at 12 h (in vivo; [3]): 0 nM
- concentration at 24 h (in vivo; [3]): 0 nM
- concentration at 48 h (in vivo; [3]): 0 nM
- concentration at 0 h (in vivo; [4]): 0 nM
- concentration at 1 h (in vivo; [4]): 400 ± 15 nM
- concentration at 2 h (in vivo; [4]): 120 ± 7 nM
- concentration at 4 h (in vivo; [4]): 0 nM
- concentration at 8 h (in vivo; [4]): 0 nM
- concentration at 12 h (in vivo; [4]): 0 nM
- concentration at 24 h (in vivo; [4]): 0 nM
- concentration at 48 h (in vivo; [4]): 0 nM
- time until compound is cleared from the blood (in vivo; [4]): 4 h
- concentration at 0 h (in vivo; [5]): 0 nM
- concentration at 1 h (in vivo; [5]): 805 nM
- concentration at 2 h (in vivo; [5]): 527 nM
- concentration at 8 h (in vivo; [5]): 29 nM
- concentration at 12 h (in vivo; [5]): 0 nM
- concentration at 24 h (in vivo; [5]): 0 nM
- concentration at 48 h (in vivo; [5]): 0 nM
- concentration at 0 h (in vivo; [6]): 0 nM
- concentration at 1 h (in vivo; [6]): 1380 nM
- concentration at 2 h (in vivo; [6]): 923 nM
- concentration at 4 h (in vivo; [6]): 477 nM
- concentration at 8 h (in vivo; [6]): 254 nM
- concentration at 12 h (in vivo; [6]): 0 nM
- concentration at 24 h (in vivo; [6]): 0 nM
- concentration at 48 h (in vivo; [6]): 0 nM
- bioavailability among the cassette compounds (in vivo; cassette 0.3 mg/kg PO): best bioavailability
- time after which compound is cleared from plasma (in vivo; cassette 0.3 mg/kg PO): 4 h
- TWL threshold in naïve animals (analgesic effect) ([1]; naïve rats, no LPS): no analgesic effect
- TWL threshold at 0.5 h (pain relief vs LPS control) [1, 7]: significant pain relief
- TWL threshold time course (analgesic effect) ([1]; rat TWL-LPS model, 1 mg/kg oral): pain relief
- TWL threshold at 0.5 h (pain relief vs LPS control) [1, 8]: significant pain relief
- TWL threshold time course (analgesic effect) ([1]; rat TWL-LPS model, 3 mg/kg oral): pain relief
- analgesic effect compared to single target treatments and their combination ([1]; rat TWL-LPS model, 3 mg/kg, 0.5 h): significantly higher
- urine excretion [2]: increase in urine excretion

Compound: COc1ccc(CNC(=O)c2ccc(OC)c(OC3CCCC3)c2)c(C(F)(F)F)c1 [Compound 1, 3-(cyclopentyloxy)-4-methoxy-N-(4-methoxy-2-(trifluoromethyl)benzyl)benzamide]
- concentration at 0 h (in vivo; [3]): 0 nM
- concentration at 1 h (in vivo; [3]): 0 nM
- concentration at 2 h (in vivo; [3]): 0 nM
- concentration at 4 h (in vivo; [3]): 0 nM
- concentration at 8 h (in vivo; [3]): 0 nM
- concentration at 12 h (in vivo; [3]): 0 nM
- concentration at 24 h (in vivo; [3]): 0 nM
- concentration at 48 h (in vivo; [3]): 0 nM
- Percentage change (PDE4): 240%

Compound: COc1ccc(CNC(=O)C2CCNCC2)c(C(F)(F)F)c1 [Compound 22, N-(4-Methoxy-2-(trifluoromethyl)benzyl)piperidine-4-carboxamide]
- % cAMP increase rel. to Rolipram @ 1 μM (PDE4): higher cAMP increase than Rolipram
- Percentage change (PDE4): 138%

Compound: CCCC(=O)N1CCC(C(=O)NCc2ccc(OC)cc2C(F)(F)F)CC1 [Compound 24, 1-Butyryl-N-(4-methoxy-2-(trifluoromethyl)benzyl)piperidine-4-carboxamide]
- Percentage change (PDE4): 110%

Compound: CCN1CCC(C(=O)NCc2ccc(OC)cc2C(F)(F)F)CC1 [Compound 26, 1-ethyl-N-(4-methoxy-2-(trifluoromethyl)benzyl)piperidine-4-carboxamide]
- Percentage change (PDE4): 62%

Compound: COc1ccc(CNC(=O)c2cccc(OC3CCCC3)c2)c(C(F)(F)F)c1 [Compound 19, 3-(Cyclopentyloxy)-N-(4-methoxy-2-(trifluoromethyl)benzyl)benzamide]
- concentration at 0 h (in vivo; [3]): 0 nM
- concentration at 0.5 h (in vivo; [3]): 4 ± 1.3 nM
- concentration at 1 h (in vivo; [3]): 2 ± 0.3 nM
- concentration at 2 h (in vivo; [3]): 2 ± 0.3 nM
- concentration at 4 h (in vivo; [3]): 2 ± 0.2 nM
- concentration at 8 h (in vivo; [3]): 1 ± 0.1 nM
- concentration at 12 h (in vivo; [3]): 1 ± 0.2 nM
- concentration at 24 h (in vivo; [3]): 0.3 ± 0.01 nM
- concentration at 48 h (in vivo; [3]): 0 nM
- plasma concentration reached (in words) (in vivo; cassette 0.3 mg/kg PO): one digit nM
- Percentage change (PDE4): 147%

Compound: TPPU [reference compound]
- % cAMP increase rel. to Rolipram @ 1 μM (PDE4): 40 ± 10%
- Percentage change (PDE4): 37%
- mean FRET ratio change (PDE4): 1.015
- TWL threshold at 0.5 h (pain relief vs LPS control) [1, 7]: do not result in an equal analgesic effect
- TWL threshold at 0.5 h (pain relief vs LPS control) [1, 8]: significant pain relief

Compound: COc1ccc(CNC(=O)C2CCN(C(=O)C3CC3)CC2)c(C(F)(F)F)c1 [Compound 28, 1-(cyclopropanecarbonyl)-N-(4-methoxy-2-(trifluoromethyl)benzyl)piperidine-4-carboxamide]
- % cAMP increase rel. to Rolipram @ 1 μM (PDE4): 230 ± 15%
